Experimental findings from patent US20260216328A1, “DISRUPTABLE LINKER COMPOSITIONS, SWITCHABLE BISPECIFIC T CELL NANOENGAGER (SWITCH-BITE) COMPOSITIONS COMPRISING THE SAME, AND METHODS OF USE THEREOF” (The Trustees of the University of Pennsylvania, priority 2023, published 2026) are described below.

For data set [1], the system named is E0771-HER2 tumour. Nature of the data set: AMD-mediated in vivo disassembly of SiTE-Cy7 (Cy7 signal in tumour). The arrangement: species or system mouse. The note with it: 18 h post-SiTE-Cy7, read 6 h later. The procedure:
FIGS. 19A-19C: SiTE was labeled with Cy7 dye (Cy7 was labeled on CD3 Fab) and was i.v. injected to tumour-bearing mice at 0 h. Then. PBS. […] 6 h later, mice were euthanized and the Cy7 signal in different organs and tumour was measured using IVIS. […] FIG. 19E: quantification of the fluorescence in tumour tissues in a-c. Data was shown as mean±SD (n=3), statistical differences were analyzed using two-tailed unpaired Student's t-test. […] SiTE-Cy7 was i.v. infused into tumour bearing mice at 0 h. […] After 24 h, mice were euthanized and the Cy7 signal distribution in major organs and mice body was observed. Cy7 signal was detected in the spleen, kidney and bladder.
Next, determination as to whether AMD can be used to break down the SiTE in vivo was sought. Cy7 was modified to the CD3 Fab and the Fab assembled with HER2 Fab to formulate SiTE-Cy7. SiTE-Cy7 was i.v. injected to E0771-HER2 tumour-bearing mice at 0 h. […] Mice were euthanized 6 h later and the Cy7 signal in different organs and tumour was measured using an in vivo imaging system (IVIS). […] Most supramolecular chemistry-based strategies for controllable chemotherapeutic release have only been tested in in vitro studies, and only a few in vivo controllable drug release strategies have been reported in this space. […]

Data set [2] relates to E0771-HER2 cells and primary mouse T cells. Nature of the data set: T cell-tumour cell engagement by confocal microscopy. It is filed as cell-based. The method, then:
E0771-HER2 cells were labeled with CSFE-green and primary T cells were labelled with CFSE-red. The two cells were co-cultured and then treated with PBS or SiTE for 2 h. After that, the cells were observed by confocal imaging. T cell to T cell interactions and T cell to tumour cell interactions were counted manually by taking 10 images for quantification.
After synthesis and characterization of the AMD-responsive SiTE, the ability of SiTE to induce tumour cell-T cell engagement and tumour cell lysis was tested (FIG. 11A). E0771-HER2 cells were incubated with primary mouse T cells at a 1:1 ratio. Cells were then treated with SiTEs at varying concentrations for 4 h and observed under confocal laser scanning microscopy (CLSM) (FIG. 11B). In the untreated control group, cancer cells and T cells were randomly distributed with few T cells and cancer cells engaged. However, in groups receiving 5 ng/mL of SiTE, ~10% of T cells were engaged with tumour cells, and this rate increased to ~90% when cells were treated with 20 ng/mL of SiTE. […] To ensure the specificity of this engagement. […] Since the SiTE contains >20 Fabs, it is possible that it may induce T cell-to-T cell engagement and induce cytokine release. […] After 24 h, mouse blood was collected and the T cell crosslinking levels and IL-6 and TNF-α levels were measured. […]

The test system of data set [3] is E0771-HER2 tumour. In words: E0771-HER2 tumour growth inhibition in C57/BL6 mice. It counts as in vivo, mouse. The note with it: following AMD infusion after SiTE. An excerpt:
FIG. 20A: 106 E0771-HER2 cells were s.c. injected into the right flank of C57/BL6 mice. […] All mice were euthanized at day 23. FIG. 20B: images of mice from all treatment groups on day 23. FIG. 20C: tumour growth curves for different groups. Tumour tissue was isolated on Day 23 and observed for immune cell infiltration. FIG. 20D: repeat of the tumour growth inhibition experiment. FIG. 20E: mouse body weight change during the tumour inhibition experiment. FIG. 20F: percentages of CD45+, CD45+CD3+, CD45+CD3+CD4+/CD8+ cells in the tumour tissues. FIG. 20G: immunofluorescence images of the tumour tissues in different groups with cell nuclei labeled with DAPI (blue) and T cells labeled with anti-CD3 antibody (green). Scale bar: 100 μm.
Tumour size and mouse weight were monitored.
Minimal changes in mouse weight were observed across the different groups (FIG. 20E), likely because HER2 antigen is not expressed on normal mouse cells, preventing toxicity from on-target, off-tumour activity. At day 23, all mice were euthanized and tumour tissue was collected to determine total lymphocyte and CD3^+ T cell infiltration using flow cytometry and immunofluorescence imaging.
Additionally, to confirm that this impact on the tumour tissue was HER2 specific, SiTE activity was evaluated in a HER2 negative E0771 tumour model (FIGS. 24A-24J).

Data set [4] is described as follows: Half-life, distribution and clearance of AMD in mice. It counts as in vivo. The note with it: mouse; for half-life: blood, intravenous.
The subject of data set [5] is Raji-Luc-GFP tumour cells. In words: Cytokine release syndrome in humanized NSG-SGM3 mice with Raji-Luc-GFP tumour. It counts as in vivo, mouse. The note with it: 10 mg/kg AMD i.v., 24 h post-AMD. The procedure:
An in vivo imaging system (IVIS) was used to monitor tumour burden in vivo. […] FIGS. 41C-41E: Mouse body weight, temperature and survival curves, respectively. n=10 mice. […] The data in FIGS. 41C-41D and FIGS. 41F-41J were plotted as mean±s.d. (n=10) from three independent experiments. […] P value in FIG. 41E was determined using Log-rank (Mantel-Cox) test.
SiTE and Blinatumomab were also compared with regard to treating symptoms of CRS and neurotoxicity. The humanized mouse model was constructed as before, but this time the piggybac transposon system was not used to express CD19 in the mouse livers. This allowed better analysis of the effects of the SiTE on CRS and neurotoxicity (FIG. 41A). Raji-Luc-GFP cells were i.v. injected at day −14. Blinatumomab, SiTE or PBS were i.v. injected to the mice at day one. Mouse tumour burden, body weight, temperature, and plasma cytokine levels were monitored (FIGS. 41B-41J).

[6] abbreviates: AMD dispersed in 5% polyoxyethylene castor oil.

As for `NC12CC3CC(CC(C3)C1)C2` [AMD, adamantan-1-amine], the “Cy7 signal decrease compared to PBS treatment” value with E0771-HER2 tumour [1] (setting [6]) was “over 78%”. In addition, the “decrease in Cy7 signal in the tumour” value in the data set on E0771-HER2 tumour [1] (AMD dispersed in PBS) is reported as around 46%. The “separation of conjugated cells” value in data set [2] (100 ng/mL AMD after 20 ng/mL SiTE for 4 h) was ~ 40%; in data set [2] (1 μg/mL AMD after 20 ng/mL SiTE for 4 h), around 100%. The “number of T cells in the tumour tissue” value in the data set with E0771-HER2 tumour [3] is listed as “greatly decreased”. In addition, the half-life (commonly the time needed for the level to fall by half in the phase considered) is around 24 h in data set [4] (setting [6]) and around 9 h in data set [4] (AMD dispersed in PBS). For the same compound, the clearance entry in data set [4] (in vivo) is “cleared from the urine”. In addition, in data set [5], the “increased cytokine levels after AMD” value is recorded as “gradually recovered to within normal ranges”.
